Data from patent US9670224B2, “Forsythiaside sulfate and derivatives thereof, preparation method and application thereof” (priority 2013, dated 2017).
Where a name gives a salt, the structure may show the parent alone. Read-outs that look alike come from different tables or passages of the source. Marks after values point to notes of the source that are not given here.

Tests used:
[1] = test system: Coxsackievirus A16 (CoxA16); test: Impact of the drug on virus-induced cytopathy (CPE, MTT), CoxA16; assay type: cell-based; conditions: Vero cells, 100TCID50, drug at about the maximum non-toxic concentration, 72 h
Enterovirus EV71 = test: Impact of the drug on virus-induced cytopathy (CPE, MTT), EV71; assay type: cell-based; conditions: Vero cells, 100TCID50, drug at about the maximum non-toxic concentration, 72 h
[2] = test system: parainfluenza virus infected mice; assay type: in vivo, Kunming mice
[3] = test system: Respiratory syncytial virus (RSV); test: Impact of the drug on virus-induced cytopathy (CPE, MTT), RSV; assay type: cell-based; conditions: Vero cells, 100TCID50, drug at about the maximum non-toxic concentration, 72 h
[4] = test system: influenza virus infected mice; assay type: in vivo, Kunming mice; conditions: lung suspension, 5 days
Adenovirus (AdV) = test: Impact of the drug on virus-induced cytopathy (CPE, MTT), ADV; assay type: cell-based; conditions: Vero cells, 100TCID50, drug at about the maximum non-toxic concentration, 72 h
[5] = test system: Herpes simplex virus type-1 (HSV-1); test: Impact of the drug on virus-induced cytopathy (CPE, MTT), HSV-I; assay type: cell-based; conditions: Vero cells, 100TCID50, drug at about the maximum non-toxic concentration, 72 h
Coxsackievirus B3 (CVB3) = test: Impact of the drug on virus-induced cytopathy (CPE, MTT), CVB3; assay type: cell-based; conditions: Vero cells, 100TCID50, drug at about the maximum non-toxic concentration, 72 h
Influenza virus = test: Impact of the drug on virus-induced cytopathy (CPE, MTT), influenza virus; assay type: cell-based
Parainfluenza virus = test: Impact of the drug on virus-induced cytopathy (CPE, MTT), parainfluenza virus; assay type: cell-based; conditions: Vero cells, 100TCID50, drug at about the maximum non-toxic concentration, 72 h
Vero cell = test: Cytotoxicity test on Vero cells (MTT); assay type: cell-based, African green monkey; conditions: 72 h, Probit regression
Experimental: Cytotoxicity test: drugs are diluted according to the concentrations indicated in Table 1 for the determination of cytotoxicity.
The aforementioned drugs which are diluted with a maintenance solution (DMEM containing 2% or fetal bovine serum) to different concentrations are dropwise added to the Vero monolayer cell, each well is 0.2ml, there are 6 duplicate wells for each concentration, 6 wells for normal control (normal control group without adding drugs) and 6 wells for blank control (culture medium) are additionally provided, those are placed in an 5% CO2 incubator at 37° C. for culturing, observing CPE with an inverted microscope every day and recording. After 72 h, 20 μL (5 mg·mL^−1) of MTT solution is added in each well, and continues to be incubated for 4 h, the culture broth in each well is sucked and discarded, 100 μL of DMSO is added in each well, and is shaken for 5 min, measuring the OD value at 492 nm to calculate cell survival rate. In SPSS 18.0 statistical software, the cell survival rate is subjected to Probit regression analysis to calculate the maximum non-toxic concentration (TC0) and half toxic concentration (TC50) of the drug on the Vero cell.

[6] = test system: parainfluenza virus infected mice; assay type: in vivo, Kunming mice; remark: listed apart in the source
[7] = test system: parainfluenza virus pneumonia model mice; test: Observation of lung histomorphology, parainfluenza virus pneumonia mice; assay type: in vivo, Kunming mice; conditions: 3.25 mg/kg/d to 13 mg/kg/d, fifth day, HE staining
[8] = Solubility of the isolated solid; conditions: water and ethanol
[9] = test system: influenza virus infected mice; assay type: in vivo, Kunming mice; conditions: 5 days
[10] = test system: influenza virus pneumonia model mice; test: Observation of lung histomorphology, influenza virus pneumonia mice; assay type: in vivo, Kunming mice; conditions: 3.25 mg/kg/d to 13 mg/kg/d, fifth day, HE staining
Experimental: A degreasing cotton is placed in a 200-300 mL beaker, in which a suitable amount of ether (just for making cotton wet) is added, the beaker containing the degreasing cotton is inverted upside down, the mice are extremely excited when anesthetized therein, and are made to lie on their backs when clearly weak, the mice are infected nasally with 15LD50 influenza virus a .d parainfluenza virus at 0.03 ml/nostril, and the virus suspension is replaced with normal saline in the normal control group.
The administration is performed once a day for five consecutive days. The virus control group is drenched with normal saline of the same volume.
Various mice lungs are respectively taken in the fifth day after treatment; general pathological changes of their viscera are observed by naked eyes and are recorded. The lungs are cleaned by rinsing with normal saline and moisture thereon is sucked up by using filter paper; a portion of the lung is fixed with 10% formaldehyde, paraffin-embedded, sliced and HE-strained; observation and photographing are performed under a microscope.

[11] = parainfluenza virus infected mice, high dosage 13.0 mg/kg/d intragastric, 5 days
[12] = parainfluenza virus infected mice, low dosage 3.25 mg/kg/d intragastric, 5 days
[13] = high dosage 13.0 mg/kg/d intragastric
[14] = low dosage 3.25 mg/kg/d intragastric

Row | SMILES | antiviral effective rate (ER %), CoxA16 [1] [%] | antiviral effective rate (ER %), EV71 (Enterovirus EV71) | antiviral effective rate (ER %), RSV [3] | antiviral effective rate (ER %), ADV (Adenovirus (AdV)) | antiviral effective rate (ER %), HSV-I [5] | antiviral effective rate (ER %), CVB3 (Coxsackievirus B3 (CVB3)) [%] | antiviral effective rate (ER %), Parainfluenza virus (Parainfluenza virus) | half toxic concentration (TC50) (Vero cell) [mg/L] | the maximum non-toxic concentration (TC0) (Vero cell) [g/L] | solubility [8] | also measured
1 | NC(=O)c1ncn([C@@H]2O[C@H](CO)[C@@H](O)[C@H]2O)n1 [ribavirin, Ribavirin, reference compound] | 0.70 | 4.25** % | 50.08* % | 0.43% | 62.92** % | 13.44 | 97.56** % | – | – | – | Hemagglutination titer (InX) ([2]; lung suspension, parainfluenza virus infected mice, 58.5 mg/kg/d, 5 days): 26.73 ± 1.193; Hemagglutination titer (InX) ([4]; 58.5 mg/kg/d): 21.13 ± 0.986; antiviral effective rate (ER %), Influenza virus (Influenza virus): 57.49** %
2 | CCOC(=O)C1=C[C@@H](OC(CC)CC)[C@H](NC(C)=O)[C@@H](N)C1 [oseltamivir phosphate, Oseltamivir phosphate, reference compound] | 2.95 | 51.86% | 37.60% | 10.31% | 66.56** % | 1.64 | 94.52** % | 832 | 0.28 | – | antiviral effective rate (ER %), Influenza virus (Influenza virus; Vero cells, 100TCID50, drug at about the maximum non-toxic concentration, 72 h, MTT): 81.76** %
3 | COc1ccc([C@H]2OCC3C2CO[C@H]3c2ccc(OC)c(OS(=O)(=O)O)c2)cc1OC (stereo partly shown) [forsythiaside sodium sulfate] | – | 50.21% | – | 20.91* % | – | 10.55 | – | 685 | 0.128 | soluble in water and ethanol | Lung index (X ± S) ([6]; mouse, in vivo): 1.303 ± 0.062; Lung index inhibition rate (%) ([6]; mouse, in vivo): 18.46%; Lung index (X ± S) [6, 11]: 1.331 ± 0.073; Lung index inhibition rate (%) [6, 11]: 16.73%; Lung index (X ± S) [6, 12]: 1.311 ± 0.049; Lung index inhibition rate (%) [6, 12]: 17.96%; lung histology / pulmonary tissue pathology [7]: significantly improve the pulmonary tissue pathology; Hemagglutination titer (InX) ([2]; lung suspension, parainfluenza virus infected mice, high dosage 13.0 mg/kg/d, 5 days): 19.82 ± 0.981; Hemagglutination titer (InX) ([2]; lung suspension, parainfluenza virus infected mice, low dosage 3.25 mg/kg/d, 5 days): 23.26 ± 0.991; Hemagglutination titer (InX) ([2]; mouse, in vivo): 21.01 ± 0.614; Hemagglutination titer (InX) ([4]; high dosage 13.0 mg/kg/d): 20.07 ± 0.646; Hemagglutination titer (InX) ([4]; low dosage 3.25 mg/kg/d): 23.93 ± 1.392; Lung index (X ± S) [9, 13]: 1.1809 ± .057; Lung index inhibition rate (%) [9, 13]: 20.73%; Lung index (X ± S) [9, 14]: 1.344 ± 0.035; Lung index inhibition rate (%) [9, 14]: 9.69%; lung histology / pulmonary tissue pathology [10]: significantly improve the pulmonary tissue pathology
4 | COc1ccc([C@H]2OCC3C2CO[C@H]3c2ccc(OC)c(OS(=O)(=O)O)c2)cc1OC.N (stereo partly shown) | – | 35.12% | – | 20.88* % | – | 7.10 | – | 555 | 0.105 | soluble in water and ethanol | –
